Assay results from patent publication US20260109707A1, “HETEROBIFUNCTIONAL COMPOUNDS AND METHODS OF TREATING DISEASE” (Halda Therapeutics OpCo. Inc., priority 2022, published 2026).
Read-outs that look alike come from different tables or passages of the source. Each block holds one compound with its values, some of them ahead of it.

Experiments:
VCaP cells = experiment: Cellular growth inhibition assay for VCaP cells (CellTiter-Glo, 72 hours); format: cell-based, human
In short: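 Luminescent viability signal after 72 h of compound exposure gave GI50 values by four-parameter nonlinear regression. Compounds were added in 0.5% DMSO to cells plated 24 h earlier at 5000/well in DMEM containing 10% FBS.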

[1] = system: T-Rex 293 cell line SC3 cells having increased expression of androgen receptor protein due to exposure to doxycycline; experiment: Cellular growth inhibition assay, T-Rex 293 SC3 cells with doxycycline (CellTiter-Glo, 72 hours); format: cell-based; conditions: T-Rex 293 SC3 cells with increased androgen receptor expression due to doxycycline (10 ng/mL)
In short: (§1)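 Growth inhibition is measured in an inducible AR-expressing T-Rex 293 clone, SC3, cultured with or without 10 ng/mL doxycycline in hormone-depleted medium. Test compounds are applied for 72 hours. GI50 values derive from CellTiter-Glo 2.0 signal fitted by four-parameter regression.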

[2] = system: T-Rex 293 cell line SC3 cells lacking increased expression of androgen receptor protein; experiment: Cellular growth inhibition assay, T-Rex 293 SC3 cells without doxycycline (CellTiter-Glo, 72 hours); format: cell-based; conditions: T-Rex 293 cell line SC3 cells not exposed to doxycycline (lacking increased androgen receptor expression)
In short: as §1

GI50 (VCaP cells): < 0.5 µM
Structure (SMILES): COCC1N=C(c2ccc(C#CC3CC4(C3)CN(c3ccc(C(=O)N[C@H]5CC[C@H](Oc6ccc(C#N)c(Cl)c6)CC5)nn3)C4)cc2)c2c(sc(C)c2C)-n2c(C)nnc21 (stereo partly drawn) [I-571]
GI50 [1]: < 0.5 µM | GI50 [2]: < 0.5 µM

GI50 (VCaP cells; Homo sapiens, VCaP, 72 h): 1.5 to 3 µM
Structure (SMILES): COC[C@@H]1N=C(c2ccc(N3CCC4(CCCN(c5ccc(C(=O)N[C@H]6CC[C@H](Oc7ccc(C#N)c(Cl)c7)CC6)nn5)C4)CC3)cc2)c2c(sc(C)c2C)-n2c(C)nnc21 [I-568]
GI50 ([1]; 72 h): < 0.5 µM | GI50 ([2]; 72 h): < 0.5 µM

GI50 (VCaP cells): > 3 µM
Structure (SMILES): Cc1sc2c(c1C)C(c1ccc(C3CCC4(CC3)CCN(c3ccc(C(=O)N[C@H]5CC[C@H](Oc6ccc(C#N)c(Cl)c6)CC5)nn3)C4)nc1)=NC1(CC1)c1nnc(C)n1-2 (stereo partly drawn) [I-607]
GI50 ([1]; 72 h): < 0.5 µM | GI50 [2]: > 3 µM

GI50 (VCaP cells; Homo sapiens, VCaP, 72 h): < 0.5 µM
Structure (SMILES): Cc1sc2c(c1C)C(c1ccc(C3CCC(CC4CCN(c5ccc(C(=O)N[C@H]6CC[C@H](Oc7ccc(C#N)c(Cl)c7)CC6)nn5)CC4)CC3)cc1)=NC1(CC1)c1nnc(C)n1-2 (stereo partly drawn) [I-756]
GI50 ([1]; 72 h): < 0.5 µM | GI50 [2]: > 3 µM

GI50 (VCaP cells): 0.5 to 1.5 µM
Structure (SMILES): Cc1sc2c(c1C)C(c1ccc(OCC3CC4(CCCN(c5ccc(C(=O)N[C@H]6CC[C@H](Oc7ccc(C#N)c(Cl)c7)CC6)nn5)C4)C3)cc1)=NC1(CC1)c1nnc(C)n1-2 (stereo partly drawn) [I-470]
GI50 ([1]; 72 h): < 0.5 µM | GI50 [2]: 0.5 to 1.5 µM

Second part, the compound before the results:

Structure (SMILES): Cc1sc2c(c1C)C(c1cccc(OC3CCC4(CC3)CCN(c3ccc(C(=O)N[C@H]5CC[C@H](Oc6ccc(C#N)c(Cl)c6)CC5)nn3)C4)c1)=N[C@@H](C)c1nnc(C)n1-2 (stereo partly drawn) [I-709]
GI50 (VCaP cells; Homo sapiens, VCaP, 72 h): < 0.5 µM | GI50 [1]: < 0.5 µM | GI50 [2]: > 3 µM

Structure (SMILES): Cc1sc2c(c1C)C(c1ccc(C3CCC4(CC3)CCN(c3ccc(C(=O)N[C@H]5CC[C@H](Oc6ccc(C#N)c(Cl)c6)CC5)nn3)CC4)nc1)=N[C@@H](C)c1nnc(C)n1-2 [I-744]
GI50 (VCaP cells): < 0.5 µM | GI50 [1]: < 0.5 µM | GI50 [2]: 0.5 to 1.5 µM

Structure (SMILES): Cc1sc2c(c1C)C(c1cccc(CC3CCC4(CC3)CCN(c3ccc(C(=O)N[C@H]5CC[C@H](Oc6ccc(C#N)c(Cl)c6)CC5)nn3)C4)c1)=N[C@@H](C)c1nnc(C)n1-2 (stereo partly drawn) [I-714]
GI50 (VCaP cells): < 0.5 µM | GI50 [1]: < 0.5 µM | GI50 [2]: < 0.5 µM

Structure (SMILES): Cc1sc2c(c1C)C(c1ccc(CCCC3CCCN(c4ccc(C(=O)N[C@H]5CC[C@H](Oc6ccc(C#N)c(Cl)c6)CC5)nn4)CC3)cn1)=N[C@@H](C)c1nnc(C)n1-2 (stereo partly drawn) [I-699]
GI50 (VCaP cells; Homo sapiens, VCaP, 72 h): < 0.5 µM | GI50 ([1]; 72 h): < 0.5 µM | GI50 [2]: > 3 µM

Structure (SMILES): Cc1sc2c(c1C)C(c1cccc(CN3CCC4(CC3)CCN(c3ccc(C(=O)N[C@H]5CC[C@H](Oc6ccc(C#N)c(Cl)c6)CC5)nn3)C4)c1)=N[C@@H](C)c1nnc(C)n1-2 [I-688]
GI50 (VCaP cells; Homo sapiens, VCaP, 72 h): < 0.5 µM | GI50 ([1]; 72 h): < 0.5 µM | GI50 ([2]; 72 h): 0.5 to 1.5 µM

Structure (SMILES): CCNC(=O)C[C@@H]1N=C(c2ccc(N3CC(N(C)C4CCN(c5ccc(C(=O)N[C@H]6CC[C@H](Oc7ccc(C#N)c(Cl)c7)CC6)nn5)CC4)C3)cc2)c2c(sc(C)c2C)-n2c(C)nnc21 [I-62]
GI50 (VCaP cells; Homo sapiens, VCaP, 72 h): < 0.5 µM | GI50 ([1]; 72 h): < 0.5 µM | GI50 ([2]; 72 h): > 3 µM

Structure (SMILES): Cc1sc2c(c1C)C(c1ccc(CCC3CC4(CCCN(c5ccc(C(=O)N[C@H]6CC[C@H](Oc7ccc(C#N)c(Cl)c7)CC6)nn5)C4)C3)cn1)N[C@@H](Cc1ncco1)c1nnc(C)n1-2 (stereo partly drawn) [I-644]
GI50 (VCaP cells): < 0.5 µM | GI50 [1]: < 0.5 µM | GI50 [2]: > 3 µM

Structure (SMILES): Cc1sc2c(c1C)C(c1cccc(OC3CC4(CCN(c5ccc(C(=O)N[C@H]6CC[C@H](Oc7ccc(C#N)c(Cl)c7)CC6)nn5)CC4)C3)c1)=N[C@@H](C)c1nnc(C)n1-2 [I-648]
GI50 (VCaP cells; Homo sapiens, VCaP, 72 h): < 0.5 µM | GI50 ([1]; 72 h): < 0.5 µM | GI50 ([2]; 72 h): 0.5 to 1.5 µM

Structure (SMILES): Cc1sc2c(c1C)C(c1ccc(N3CCC4(CCN(c5ccc(C(=O)N[C@H]6CC[C@H](Oc7ccc(C#N)c(Cl)c7)CC6)nn5)C4)CC3)c(F)c1)=N[C@@H](C)c1nnc(C)n1-2 [I-735]
GI50 (VCaP cells): < 0.5 µM | GI50 [1]: < 0.5 µM | GI50 [2]: < 0.5 µM

Structure (SMILES): Cc1sc2c(c1C)C(c1ccc(N3CCOC4(CCN(c5ncc(C(=O)N[C@H]6CC[C@H](Oc7ccc(C#N)c(Cl)c7)CC6)cn5)CC4)C3)cc1)=NC(Cc1ncco1)c1nnc(C)n1-2 (stereo partly drawn) [I-794]
GI50 (VCaP cells; Homo sapiens, VCaP, 72 h): < 0.5 µM | GI50 ([1]; 72 h): < 0.5 µM | GI50 ([2]; 72 h): > 3 µM
